The values that follow come from patent US9096591B2, “Tetracyclic compounds” (Medivation Technologies, Inc., priority 2007, dated 2015).

Assay [1] has as its target T1, human recombinant histamine H2 receptor (Homo sapiens, UniProt P25021).
T1 construct: expressed in transfected cells; host or cells: CHO-K1 cells
The experiment in a line: Histamine H2 radioligand binding ([125I]Aminopotentidine). A digest of the protocol: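 This radioligand binding assay measured displacement of [125I]Aminopotentidine from recombinant human histamine H2 receptors. Compounds were dissolved in 1% DMSO vehicle. Specific binding was calculated by subtracting non-specific binding, defined using 3 μM Tiotidine, and activity was reported as percentage inhibition of that specific binding.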

The target in assay [2] is T2, human recombinant adrenergic α2A receptor (Homo sapiens, UniProt P08913).
T2 construct: expressed in transfected cells; host or cells: insect Sf9 cells
T2 sequence (P08913 1-465): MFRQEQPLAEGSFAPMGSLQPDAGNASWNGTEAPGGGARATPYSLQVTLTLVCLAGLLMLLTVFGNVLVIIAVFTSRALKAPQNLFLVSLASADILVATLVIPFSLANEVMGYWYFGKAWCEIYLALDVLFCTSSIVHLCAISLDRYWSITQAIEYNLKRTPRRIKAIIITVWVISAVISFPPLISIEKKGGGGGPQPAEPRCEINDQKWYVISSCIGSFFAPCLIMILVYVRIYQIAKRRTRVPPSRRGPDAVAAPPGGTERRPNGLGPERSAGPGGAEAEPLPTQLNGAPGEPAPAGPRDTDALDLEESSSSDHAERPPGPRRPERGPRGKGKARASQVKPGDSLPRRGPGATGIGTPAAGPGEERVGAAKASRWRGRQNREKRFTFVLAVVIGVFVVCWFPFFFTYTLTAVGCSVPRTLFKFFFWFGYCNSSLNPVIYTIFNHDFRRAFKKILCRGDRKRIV
In words: Adrenergic α2A radioligand binding ([3H]MK-912). More on the design: Inhibition of ligand binding, Adren. alpha2A: concentration or dose not given beside the values. The conditions noted are these: percent inhibition of specific binding. The method, then: To evaluate in radioligand binding assays the activity of compounds of the invention, human recombinant adrenergic α2A receptor expressed in insect Sf9 cells (Uhlen S et al. J Pharmacol Exp Ther. 271:1558, 1994) in a modified Tris-HCl buffer (50 mM Tris-HCl, pH 7.4, 12.5 mM MgCl2, 2 mM EDTA) was used. Compounds of invention were incubated with 1 nM [^3H]MK-912 for 60 minutes at 25° C. MK912 is (2S-trans)-1,3,4,5′,6,6′,7,12b-octahydro-1′,3′-dimethyl-spiro[2H-benzofuro[2,3-a]quinolizine-2,4′(1′H)-pyrimidin]-2′(3′H)-one hydrochloride Non-specific binding was estimated in the presence of 10 μM WB-4101 (2-(2,6-Dimethoxyphenoxyethyl)aminomethyl-1,4-benzodioxane hydrochloride). Receptor proteins were filtered and washed, the filters were then counted to determine [^3H]MK-912 specifically bound. […] Biochemical assay results are presented as the percent inhibition of specific binding in Table 6.

In assay [3] the target is T3, human recombinant adrenergic α1D receptor (Homo sapiens, UniProt P25100).
T3 construct: expressed in transfected cells; host or cells: HEK-293 cells
T3 sequence (P25100 1-572): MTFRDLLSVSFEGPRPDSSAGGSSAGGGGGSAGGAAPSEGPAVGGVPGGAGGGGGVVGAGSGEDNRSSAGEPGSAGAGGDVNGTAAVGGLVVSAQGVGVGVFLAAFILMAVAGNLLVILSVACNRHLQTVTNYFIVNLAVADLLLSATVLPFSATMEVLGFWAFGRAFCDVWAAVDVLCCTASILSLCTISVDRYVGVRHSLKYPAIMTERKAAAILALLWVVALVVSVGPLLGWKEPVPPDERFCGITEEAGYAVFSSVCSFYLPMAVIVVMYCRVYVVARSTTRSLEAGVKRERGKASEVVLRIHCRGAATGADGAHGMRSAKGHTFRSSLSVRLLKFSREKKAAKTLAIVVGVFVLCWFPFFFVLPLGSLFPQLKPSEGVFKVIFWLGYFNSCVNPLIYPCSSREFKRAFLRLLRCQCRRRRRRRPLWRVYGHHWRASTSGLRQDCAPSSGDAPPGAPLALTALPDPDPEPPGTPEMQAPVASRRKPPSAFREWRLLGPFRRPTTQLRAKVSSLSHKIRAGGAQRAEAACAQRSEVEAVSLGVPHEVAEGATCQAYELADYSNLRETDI
The experiment in a line: Adrenergic α1D radioligand binding ([3H]Prozosin). As to conditions: percent inhibition of specific binding. Set-up: Inhibition of ligand binding, Adren. alpha1D: concentration or dose not given beside the values. The method, then: Compounds of invention were incubated with 0.6 nM [^3H]Prozosin for 60 minutes at 25° C. Non-specific binding was estimated in the presence of 10 μM phentolamine. Receptor proteins were filtered and washed, the filters were then counted to determine [^3H]Prozosin specifically bound. […] Biochemical assay results are presented as the percent inhibition of specific binding in Table 6.

Assay [4] deals with T4, human recombinant dopamine D2L receptor (Homo sapiens, UniProt P14416).
T4 construct: expressed in transfected cells; host or cells: CHO cells
In words: Dopamine D2L radioligand binding ([3H]Spiperone). As to conditions: percent inhibition of specific binding. The method, then:
Non-specific binding was estimated in the presence of 10 μM Haloperidol. Receptor proteins were filtered and washed, the filters were then counted to determine [^3H]Spiperone specifically bound. […] Biochemical assay results are presented as the percent inhibition of specific binding in Table 6.

Where [5] appears, read: 1 μM compound, 0.1 nM [125I]Aminopotentidine, read-out: Histamine Binding H2, percent inhibition of specific binding.
Setting [6] is: percent inhibition of specific binding, screened at 1 μM, read-out: Inhibition of ligand binding, Hist. H2.

Each structure is given as a SMILES string. Where two headings read alike, the source gives them in different places.

T4 sequence (P14416 whole entry): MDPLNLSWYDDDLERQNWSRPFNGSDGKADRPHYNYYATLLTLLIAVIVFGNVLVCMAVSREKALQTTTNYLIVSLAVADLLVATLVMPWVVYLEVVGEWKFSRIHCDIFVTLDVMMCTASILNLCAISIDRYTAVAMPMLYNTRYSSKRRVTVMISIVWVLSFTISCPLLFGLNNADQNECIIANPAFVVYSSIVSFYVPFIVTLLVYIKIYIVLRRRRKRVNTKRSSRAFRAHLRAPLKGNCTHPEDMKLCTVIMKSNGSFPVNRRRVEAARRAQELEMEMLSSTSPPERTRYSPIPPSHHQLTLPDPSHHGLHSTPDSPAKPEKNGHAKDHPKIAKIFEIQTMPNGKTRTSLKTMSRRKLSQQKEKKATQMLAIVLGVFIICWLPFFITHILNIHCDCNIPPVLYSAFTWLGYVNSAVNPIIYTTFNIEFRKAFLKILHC
T1 sequence (P25021 whole entry): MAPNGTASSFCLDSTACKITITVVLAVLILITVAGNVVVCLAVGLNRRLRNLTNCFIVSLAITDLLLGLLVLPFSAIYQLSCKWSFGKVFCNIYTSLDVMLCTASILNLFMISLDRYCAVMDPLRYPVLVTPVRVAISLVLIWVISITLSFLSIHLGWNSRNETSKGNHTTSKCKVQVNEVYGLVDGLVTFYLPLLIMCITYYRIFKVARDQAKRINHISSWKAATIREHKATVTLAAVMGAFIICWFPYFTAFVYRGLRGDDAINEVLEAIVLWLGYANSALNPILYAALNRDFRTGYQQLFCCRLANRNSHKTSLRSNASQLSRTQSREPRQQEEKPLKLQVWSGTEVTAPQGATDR

Regarding `CN1CCc2c(c3cc(Cl)ccc3n2CCC(=O)N2CCCC2)C1` [Compound 240, 3-(8-chloro-1,2,3,4-tetrahydro-2-methylpyrido[4,3-b]indol-5-yl)-1-(pyrrolidin-1-yl)propan-1-one], the inhibition at 1 µM in assay [1] (setting [5]) and in assay [1] (setting [6]) was 23% throughout. Moreover, the “Inhibition of ligand binding, Adren. alpha2A” value (“Inhibition … Adren. alpha2A” below) in assay [2] worked out at 36%. For the same compound, in assay [3], the “Inhibition of ligand binding, Adren. alpha1D” value (shortened to “Inhibition … Adren. alpha1D”) is reported as 42%. The “Inhibition of ligand binding, Dop. D2L” value in assay [4] is 9%.

Turning to `CN1CCc2c(c3cc(Cl)ccc3n2CC(=O)N2CCCC2)C1` [Compound 243, 2-(8-chloro-1,2,3,4-tetrahydro-2-methylpyrido[4,3-b]indol-5-yl)-1-(pyrrolidin-1-yl)ethanone], the inhibition at 1 µM in assay [1] (setting [5]) and in assay [1] (setting [6]) was 17% throughout. Further, in assay [2], the “Inhibition … Adren. alpha2A” value is 3%. Also, the “Inhibition … Adren. alpha1D” value in assay [3] worked out at 8%. Moreover, the “Inhibition of ligand binding, Dop. D2L” value in assay [4] is on record as 8%.

Regarding `CN1CCc2c(c3cc(Cl)ccc3n2CC(=O)N2CCNCC2)C1` [Compound 244], the inhibition at 1 µM in assay [1] (setting [5]) and in assay [1] (setting [6]) was 10% each time. In addition, in assay [2], the “Inhibition … Adren. alpha2A” value was 22%. Moreover, the “Inhibition … Adren. alpha1D” value in assay [3] amounted to 12%. Moreover, the “Inhibition of ligand binding, Dop. D2L” value in assay [4] was 6%.

On to `CC1CN(C(=O)Cn2c3c(c4cc(Cl)ccc42)CN(C)CC3)CC(C)N1` (stereo not shown) [Compound 245], for which the inhibition at 1 µM in assay [1] (setting [5]) and in assay [1] (setting [6]) was 8% in each case. Moreover, the “Inhibition … Adren. alpha2A” value in assay [2] is listed as 8%. In addition, the “Inhibition … Adren. alpha1D” value in assay [3] amounted to 1%. Also, in assay [4], the “Inhibition of ligand binding, Dop. D2L” value came to 4%.

For the compound `CN1CCc2c(c3cc(Cl)ccc3n2CC(=O)N2CCNC(=O)C2)C1` [Compound 246], the inhibition at 1 µM in assay [1] (setting [5]) and in assay [1] (setting [6]) was 16% each time. In addition, the “Inhibition … Adren. alpha2A” value in assay [2] came out at 21%. For the same compound, the “Inhibition … Adren. alpha1D” value in assay [3] is 12%. For the same compound, the “Inhibition of ligand binding, Dop. D2L” value in assay [4] is recorded as 1%.

`COc1ccc(CCn2c3c(c4cc(C)ccc42)CN(C)CC3)cc1` [Compound 247]: the inhibition at 1 µM in assay [1] (setting [5]) and in assay [1] (setting [6]) was 97% in each case. For the same compound, the “Inhibition … Adren. alpha2A” value in assay [2] was found to be 99%. Moreover, in assay [3], the “Inhibition … Adren. alpha1D” value was determined as 95%. In addition, the “Inhibition of ligand binding, Dop. D2L” value in assay [4] came out at 87%.

As for `Cc1ccc2c(c1)c1c(n2CCc2ccc(CO)nc2)CCN(C)C1` [Compound 267], the inhibition (commonly the change of the read-out against control, counted positive when it falls) at 1 µM in assay [1] (setting [6]) stood at 42%. The “Inhibition … Adren. alpha2A” value in assay [2] stood at 49%. Also, in assay [3], the “Inhibition … Adren. alpha1D” value was found to be 92%. Also, the “Inhibition of ligand binding, Dop. D2L” value in assay [4] was determined as 21%.

`CCOC(=O)c1ccc(CCn2c3c(c4cc(C)ccc42)CN(C)CC3)cn1` [Compound 275, ethyl 5-(2-(1,2,3,4-tetrahydro-2,8-dimethylpyrido[4,3-b]indol-5-yl)ethyl)pyridine-2-carboxylate]: in assay [1] (setting [6]), the inhibition at 1 µM turned out to be 20%. Further, the “Inhibition … Adren. alpha2A” value in assay [2] came out at 29%. For the same compound, the “Inhibition … Adren. alpha1D” value in assay [3] came to 87%. In addition, the “Inhibition of ligand binding, Dop. D2L” value in assay [4] is given as 4%.

Regarding `CN1CCc2c(c3cc(Cl)ccc3n2CC(=O)N2CCS(=O)(=O)CC2)C1` [Compound 295], in assay [1] (setting [6]), the inhibition at 1 µM was 10%. Besides, the “Inhibition … Adren. alpha2A” value in assay [2] is 26%. Also, the “Inhibition … Adren. alpha1D” value in assay [3] worked out at 4%. In assay [4], the “Inhibition of ligand binding, Dop. D2L” value was −7%.

In the case of `CN1CCc2c(c3cc(Cl)ccc3n2CC(=O)N2CC[S+]([O-])CC2)C1` [Compound 296, 2-(8-Chloro-2-methyl-1,2,3,4-tetrahydro-pyrido[4,3-b]indol-5-yl)-1-(1-oxo-1l4-thiomorpholin-4-yl)-ethanone], the inhibition at 1 µM in assay [1] (setting [6]) was -4%. For the same compound, the “Inhibition … Adren. alpha2A” value in assay [2] amounted to 1%. Also, in assay [3], the “Inhibition … Adren. alpha1D” value is listed as 3%. Further, in assay [4], the “Inhibition of ligand binding, Dop. D2L” value amounted to 3%.

Take `CC(=O)N1CCN(C(=O)Cn2c3c(c4cc(Cl)ccc42)CN(C)CC3)CC1` [Compound 297, 1-(4-Acetyl-piperazin-1-yl)-2-(8-chloro-2-methyl-1,2,3,4-tetrahydro-pyrido[4,3-b]indol-5-yl)-ethanone]: in assay [1] (setting [6]), the inhibition at 1 µM was 3%. The “Inhibition … Adren. alpha2A” value in assay [2] was −2%. For the same compound, the “Inhibition … Adren. alpha1D” value in assay [3] was determined as 15%. The “Inhibition of ligand binding, Dop. D2L” value in assay [4] was found to be 0%.

Turning to `CC1CCCCN1C(=O)Cn1c2c(c3cc(Cl)ccc31)CN(C)CC2` (stereo not shown) [Compound 321, 2-(8-chloro-1,2,3,4-tetrahydro-2-methylpyrido[4,3-b]indol-5-yl)-1-(2-methylpiperidin-1-yl)ethanone], in assay [1] (setting [6]), the inhibition at 1 µM was found to be 25%. The “Inhibition … Adren. alpha2A” value in assay [2] was determined as 12%. In addition, the “Inhibition … Adren. alpha1D” value in assay [3] amounted to 4%. The “Inhibition of ligand binding, Dop. D2L” value in assay [4] was −1%.

As for `Cc1ccc2c(c1)c1c(n2CCc2cnc(C)cn2)CCN(C)C1` [Compound 322, 2,8-dimethyl-5-(2-(5-methylpyrazin-2-yl)ethyl)-2,3,4,5-tetrahydro-1H-pyrido[4,3-b]indole], the inhibition at 1 µM in assay [1] (setting [6]) stood at 20%. In assay [2], the “Inhibition … Adren. alpha2A” value stood at 44%. Besides, the “Inhibition … Adren. alpha1D” value in assay [3] came to 66%. In assay [4], the “Inhibition of ligand binding, Dop. D2L” value is 5%.

As to `Cc1ccc2c(c1)c1c(n2CCc2cnc(C)nc2)CCN(C)C1` [Compound 323, 2,3,4,5-tetrahydro-2,8-dimethyl-5-(2-(2-methylpyrimidin-5-yl)ethyl)-1H-pyrido[4,3-b]indole], in assay [1] (setting [6]), the inhibition at 1 µM was 17%. Moreover, in assay [2], the “Inhibition … Adren. alpha2A” value turned out to be 6%. For the same compound, the “Inhibition … Adren. alpha1D” value in assay [3] is reported as 49%. Moreover, the “Inhibition of ligand binding, Dop. D2L” value in assay [4] amounted to 8%.

As to `CN1CCc2c(c3cc(Cl)ccc3n2CCCc2ccc(C(F)(F)F)nc2)C1` [Compound 324, 8-chloro-5-(3-(6-(trifluoromethyl)pyridin-3-yl)propyl)-2,3,4,5-tetrahydro-2-methyl-1H-pyrido[4,3-b]indole], the inhibition at 1 µM in assay [1] (setting [6]) came out at 63%. In addition, the “Inhibition … Adren. alpha2A” value in assay [2] came to 60%. The “Inhibition … Adren. alpha1D” value in assay [3] was found to be 53%. The “Inhibition of ligand binding, Dop. D2L” value in assay [4] is on record as 28%.

Regarding `CC1CCN(C(=O)CCn2c3c(c4cc(Cl)ccc42)CN(C)CC3)CC1` [Compound 325, 3-(8-chloro-1,2,3,4-tetrahydro-2-methylpyrido[4,3-b]indol-5-yl)-1-(4-methylpiperidin-1-yl)propan-1-one], in assay [1] (setting [6]), the inhibition at 1 µM came to 22%. The “Inhibition … Adren. alpha2A” value in assay [2] is recorded as 58%. For the same compound, the “Inhibition … Adren. alpha1D” value in assay [3] came to 36%. Moreover, in assay [4], the “Inhibition of ligand binding, Dop. D2L” value is −3%.
